Read-outs that look alike come from different tables or passages of the source.
Columns and labels:
[1] = test system: A375P tumor xenografts (BRAF^V600E); assay: Pharmacodynamic markers in A375P tumor xenografts; type: in vivo; details: A375P xenograft, mice, 30 mg/kg oral once daily
Procedure: Tumors were harvested, homogenized (BD Bioscience Medimachine) in 1 mL each of ice-cold Western Blot Analysis buffer containing 4 mM sodium pyrophosphate, then centrifuged (18 000×g, 15 min, 4°C), and flash-frozen. Samples were analyzed by duplex ELISA (MesoScale Discovery) for total and phospho ERK1/2 per the manufacturer’s instructions using an MSD SI6000 reader.
A375P tumors were harvested at 6 h after the sixth daily dose with compound or vehicle, cut into samples of ∼100 mm^3 in volume, fixed in 10% neutral-buffered formalin (NBF, VWR) for 24 h, and transferred into 70% ethanol prior to paraffin embedding. Paraffin-embedded blocks were sectioned (4 µm to 5 µm) and immunostained for ppERK, Ki67, and p27^Kip1 by Mosaic Laboratories (Lake Forest, CA).
Phospho-ERK (pERK) is normalized to total ERK (tERK). Tumors harvested 6h post-last 6th dose were stained for Ki67, p27, and ppERK by immunohistochemistry and compared with pre-treatment controls (B). Data are representative of n = 3 studies and percent changes were calculated from the ratio of positively stained cells following drug treatment to those following vehicle control treatment, each as a percentage of the total cell population.

A375P cells [2] = assay: Cell cycle analysis; type: cell-based, human; details: A375P (BRAF^V600E), 72-hour exposure
Procedure: (§1) Cells were permeabilized, DNA was stained with propidium iodide, and samples were read on a BD LSRII flow cytometer. Data were analyzed using the cell cycle platform of FlowJo v6.1.1 software.
(§2) Cell cycle phases are shown in stacked format as a percentage of the total population. […] (PPTX) Click here for additional data file.

SK-MEL-28 cells [3] = assay: Cell cycle analysis; type: cell-based, human; details: SK-MEL-28 (BRAF^V600E), 72-hour exposure
Procedure: as §1, §2

A375P cells [4] = assay: Caspase-3/7 activation; type: cell-based, human; details: A375P (BRAF^V600E)
Procedure: (§3) At selected times, caspase-3/7 activity and cell density were determined using Caspase-Glo® (Promega) and CellTiter-Glo® reagents, respectively, using a PerkinElmer EnVision™ reader. Caspase activity was normalized to cell density and percent induction over the DMSO control was determined.
as §2

SK-MEL-28 cells [5] = assay: Caspase-3/7 activation; type: cell-based, human; details: SK-MEL-28 (BRAF^V600E)
Procedure: as §3, §2

A375P tumor xenograft = details: groups of 8 mice, cited from earlier work
[6] = test system: pMEK and pERK in HCT-116 (wild-type BRAF, mutant KRAS) cells; assay: Western blot, paradoxical MAPK activation in HCT-116 cells; type: cell-based, human; details: 100 nM or 300 nM, 1 h
Procedure: Cells were lysed in 25 mM Tris-HCl pH 7.5, 2 mM EDTA, 2 mM EGTA, 1% Triton X-100, 0.1% SDS, 50 mM sodium-β-glycerophosphate, 2 mM Na3VO4, 12.5 mM sodium pyrophosphate, 2× Complete EDTA-free mini protease inhibitor tablets (Roche), 2× phosphatase inhibitor cocktails I and II (Sigma-Aldrich). Protein concentrations were determined by Bio-Rad DC™ or dye-based protein assays and lysates were resolved by SDS-PAGE (Invitrogen NuPAGE®) and transferred to PVDF membranes. Membranes were blocked with Odyssey® (LI-COR Biosciences) blocking buffer and incubated with primary antibodies overnight at 4°C. Blots were washed with PBS containing 0.1% Tween-20, incubated with secondary antibodies, and washed again prior to signal detection on a LI-COR Odyssey® reader.
Lysates were immunoblotted for total ERK (tERK) and dual-phosphorylated ERK (ppERK) (B).

CC(C)(C)c1nc(-c2cccc(NS(=O)(=O)c3c(F)cccc3F)c2F)c(-c2ccnc(N)n2)s1 [dabrafenib]
downregulation of Ki67 in tumors, immunohistochemistry ([1]; 6 h after sixth dose): 28% | downregulation of pERK (ppERK) in tumors, immunohistochemistry ([1]; 6 h after sixth dose): 89% | upregulation of p27 in tumors, immunohistochemistry ([1]; 6 h after sixth dose): 54% | time post-dosing for which reduction of tumor pERK is sustained ([1]; after 7 and 14 days of dosing): up to 18 h | effect on cell cycle (A375P cells [2]): arrested the BRAF^V600E cells at the G1 (2n DNA) phase of the cell cycle | effect on cell cycle (SK-MEL-28 cells [3]): arrested the BRAF^V600E cells at the G1 (2n DNA) phase of the cell cycle | caspase-3/7 activation and apoptosis (A375P cells [4]): induced caspase-3/7 activation and apoptosis | caspase-3/7 activation and apoptosis (SK-MEL-28 cells [5]): induced caspase-3/7 activation and apoptosis | complete regressions (A375P tumor xenograft; 10 mg/kg): 1 | partial regressions (A375P tumor xenograft; 10 mg/kg): 2 | complete regressions (A375P tumor xenograft; 100 mg/kg): 4 | partial regressions (A375P tumor xenograft; 100 mg/kg): 2 | pMEK and pERK compared with DMSO control [6]: increased pMEK and pERK

— PMC3701070 (PLoS ONE, 2013)
